Data: patent publication US12036224B2, “Formulations, methods, kits, and dosage forms for treating atopic dermatitis and for improved stability of an active pharmaceutical ingredient” (Libertas Bio, Inc., priority 2017, dated 2024)
Converted amounts (≈) assume the structure as drawn. “Also recorded” adds a separate entry of the source.

What was measured:
SYK = SYK (Homo sapiens, UniProt P43405); assay: Pre-clinical kinase inhibition, SYK; type: biochemical; details: pre-clinical studies
From the text: (§1) A formulation of the disclosure comprising 2-(1-(4-((4-(4-hydroxypiperidin-1-yl)phenyl)amino)-5-oxo-5,6-dihydropyrimido[4,5-d]pyridazin-2-yl)piperidin-4-yl)acetonitrile comprises a potent inhibitor of Spleen Tyrosine Kinase (SYK) and Janus Kinases (JAK).

[1] = HCl solubility profile in organic solvents; type: physicochemical; details: organic solvent or mixture
From the text: Analytical studies for 2-(1-(4-((4-(4-hydroxypiperidin-1-yl)phenyl)amino)-5-oxo-5,6-dihydropyrimido[4,5-d]pyridazin-2-yl)piperidin-4-yl)acetonitrile are provided below in Tables 1-3: Table 1 provides the results of an HCl pH dependent solubility profile study, Table 2 provides the results of an HCl solubility profile in organic solvents, and Table 3 provides the results of an HCl stress study.

JAK = assay: Pre-clinical kinase inhibition, JAK; type: biochemical; details: pre-clinical studies
From the text: as §1

[2] = system: lesional skin of subjects with atopic dermatitis; assay: Phase 1b study in atopic dermatitis: skin biopsy biomarkers; type: in vivo, human
From the text: Assessment of Pharmacodynamics/Biomarker Parameters: • 1. Change from baseline in inflammatory markers in serum (including immune markers and CRP) • 2. Change from baseline in molecular skin biomarkers (inflammatory and barrier) • 3. Change from baseline in cellular markers (including reduction in inflammatory cells) • 4. Change from baseline in epidermal thickness and barrier markers in skin biopsies. Assessments of Efficacy Investigator's Global Assessment
For each subject, a maximum of four skin biopsies were collected during this study. Two punch biopsy samples (one from lesional skin and one from non-lesional skin) were collected at Day 1 and one punch biopsy was collected from the same lesional skin (outside the scar of the previous biopsies) at Day 15 (optional for subjects) and Day 29.
A panel of biological markers were assessed to determine the effect of Compound 1 on the disease process. These may include, but are not limited to: • Serum cytokines and inflammatory markers • Molecular skin biomarkers (inflammatory and barrier) • Circulating and tissue resident cellular phenotyping • Epidermal thickness and barrier markers from skin biopsies • Other biomarkers related autoimmune or inflammatory diseases Results: […]

[3] = system: subjects with moderate-to severe atopic dermatitis; assay: Phase 1b study in atopic dermatitis: efficacy (EASI, IGA, pruritus NRS); type: in vivo, human; details: for EASI50 / EASI75: once daily, after 4 weeks; for average decrease in EASI / average decrease in Pruritis (Itch) Numeric Rating Scale (NRS): week 4
Procedure: The study conducted was a randomized, double-blind, placebo-controlled, multicenter, sequential dose escalation study in subjects with moderate-to severe atopic dermatitis. The study included a screening period (up to 30 days) and a treatment period for 4 weeks with a 14 day follow up period that concluded with an end-of-study visit. Three sequential cohorts of 20, 40 and 80 mg QD were evaluated. At each dose level a total of 12 subjects were enrolled with 9 subjects receiving Compound 1, and 3 subjects receiving matching placebos.
Upon signing the informed consent, the each subject underwent screening assessments from Day −30 to Day −1 prior to study drug administration. On Day 1 (baseline), eligible subjects were randomized, subjected to the Day 1/baseline assessments and received Compound 1 at 20, 40 or 80 mg or placebo, dependent on cohort and randomization schedule. At this visit, PK/PD samples were collected at predose and up to 8 hours (or up to 12 hours at selected sites). Subjects were monitored in clinic for 2 hours following the first study drug administration. Subjects returned to the clinic on Day 2 for PK and PD samples (24 hours post dose).
Pre-dose PK and PD samples were collected on Days 8 and 29 (last day of treatment). On Day 15, PK/PD samples were also collected at pre-dose and up to 8 hours post-dose and subjects returned on Day 16 for PK and PD samples (24 hours post dose). Subjects came in for additional safety assessments on Days 8, 22 and 29, as well as at the end of the follow up period (Day 43). Disease assessments were conducted on Days 1, Day 15 and Day 29.
Compound 1 was administered orally at doses of 20, 40 and 80 mg qd. Compound 1 was made available in 5-mg, 20-mg, and 50-mg strength tablets.
Assessment of efficacy variables: Preliminary efficacy was assessed by changes in the following assessments between Day 1 (baseline) and Days 15 and 29: IGA, EASI, 5-D Pruritus scale, Pruritus Numeric Rating Scale, % BSA involvement of AD, and skin microbiome analysis
The IGA is an assessment scale used in clinical studies to determine severity of AD and clinical response to treatment based on a 5-point scale ranging from 0 (clear) to 4 (severe) (18). The IGA score was assessed at screening, day 1/baseline (pre-dose), and days 15, 29, 43 or early termination.
The Pruritus NRS is a single-question assessment tool that is used to assess the patient's worst itch as a result of AD in the […]. Subjects complete the patient recorded outcome once daily. Patient compliance on the pruritus NRS is followed at each clinic visit. Subjects were instructed on daily reporting at the Baseline visit and are queried for compliance at every clinic visit. Subjects completed the rating scale daily through the last study visit using the scale provided below.
The Eczema Area and Severity Index (EASI) is a validated measure used in clinical practice and clinical trials to assess the severity and extent of AD. Four AD disease characteristics are assessed for severity by the investigator or designee on a scale of “0” (None) through “3” (severe). In addition, the area of AD involvement is assessed as a percentage by body area of head, trunk, upper and lower extremities and converted to a score of 0 to 6. Subjects were subjected to this assessment at the following visits: screening, day 1/baseline (pre-dose), and days 15, 29, 43 or early termination.
Methods: Patients were randomized 1:3 placebo or Compound 1 at 20, 40 or 80 mg once daily for 4 weeks (n=36). Inclusion criteria were Eczema Area and Severity Index (EASI) ≥16, body surface area (BSA) involvement ≥10% and an Investigator's Global Assessment (IGA) of ≥3 at baseline visit. Study objectives included safety/tolerability, efficacy and pharmacokinetic measurements. No concomitant administration of topical corticosteroids or other immunosuppressants was permitted during or prior to study.

[4] = Day 1 to Day 29, 20, 40 and 80 mg

N#CCC1CCN(c2nc(Nc3ccc(N4CCC(O)CC4)cc3)c3c(=O)[nH]ncc3n2)CC1 [Compound 1, 2-(1-(4-((4-(4-hydroxypiperidin-1-yl)phenyl)amino)-5-oxo-5,6-dihydropyrimido[4,5-d]pyridazin-2-yl)piperidin-4-yl)acetonitrile]
IC50 against SYK (SYK): low nM
solubility ([1]; EtOH): 5000 µg/mL (≈ 10.8 mM)
solubility ([1]; IPA): 462 µg/mL (≈ 1 mM)
solubility ([1]; MeOH): 4440 µg/mL (≈ 9.63 mM)
IC50 against JAK (JAK): low nM
T cell (CD3+) infiltration into all layers of the skin ([2]; 40 and 80 mg, Day 29): reduced
Myeloid DC (CD11c+) infiltration into all layers of the skin ([2]; 40 and 80 mg, as early as Day 15): reduced
cutaneous biomarkers (cellular infiltrates, immune and hyperplasia markers) ([2]; particularly in the mid and high dose): improvements in epidermal hyperplasia and cellular infiltrates observed as early as Day 15; also recorded: down regulates inflammatory pathways; also recorded: reversal of cutaneous biomarkers of inflammation
total skin thickness ([2]; skin biopsies, 20, 40 and 80 mg): Reductions in total skin thickness can be observed as early as Day 15
EASI50 ([3]; 20 mg cohort): 29%
EASI75 ([3]; 20 mg cohort): 0%
average decrease in EASI ([3]; 20 mg cohort): 21%
average decrease in Pruritis (Itch) Numeric Rating Scale (NRS) ([3]; 20 mg cohort): 15%
EASI50 ([3]; 40 mg cohort): 100%
EASI75 ([3]; 40 mg cohort): 63%
average decrease in EASI ([3]; 40 mg cohort): 79%
average decrease in Pruritis (Itch) Numeric Rating Scale (NRS) ([3]; 40 mg cohort): 47%
reduction in itch ([3]; 80 mg cohort, Day 2): ~45%
EASI50 ([3]; 80 mg cohort): 88%
EASI75 ([3]; 80 mg cohort): 50%
average decrease in EASI ([3]; 80 mg cohort): 70%
average decrease in Pruritis (Itch) Numeric Rating Scale (NRS) ([3]; 80 mg cohort): 71%
overall efficacy in moderate to severe AD (in words) ([3]; 4 weeks): clear efficacy; also recorded: robust activity in EASI after 4 weeks
change in pruritus / patient reported itch (in words) ([3]; 20, 40 and 80 mg once daily): early decrease in pruritis; also recorded: significant reduction in patient reported itch was observed as early as 2nd day of treatment; also recorded: early improvements in pruritus
IGA assessments, subjects reaching 0-1 ([3]; 40 and 80 mg cohorts): up to 38%
subjects reached EASI90 [3, 4]: 3 subjects
subjects with 100% clearance [3, 4]: 2 subjects
